Source: patent publication US20220259234A1, “COT MODULATORS AND METHODS OF USE THEREOF” (Gilead Sciences, Inc., priority 2019, published 2022)
Values after ≈ are worked out from the molar mass of the structure shown. Where two headings read alike, the source gives them in different places.

What was measured:
[1] = In vivo dog pharmacokinetics; settings: beagle dogs; for AUC0-72 h of the named analyte in plasma: label = analyte measured
[2] = Solubility in FaSSIF and FeSSIF; format: physicochemical; settings: thermodynamic from solid
Procedure: Solubility was determined at ambient temperature in buffered fasted-state simulated intestinal fluid (FaSSIF, pH 6.5) and buffered fed-state simulated intestinal fluid (FeSSIF, pH 5.0) prepared in-house using BioRelevant Simulated Intestinal Fluid (SIF) powder. Solids were added to FaSSIF or FeSSIF in 1.5-mL Eppendorf tubes, sonicated for 1 minute, then agitated for 2.5 hours in an Eppendorf ThermoMixer C. To determine concentration in solution, the suspensions were centrifuged for 10 min at 14,800 rpm and supernatants were diluted to a volume of 1 mL with 1:1 v/v acetonitrile:water. All diluted supernatants were analyzed by UPLC using a Waters Acquity UPLC with a PDA UV detector.

[3] = Human plasma stability; format: in vitro ADME; settings: substrate 2 μM, read-out: Human Plasma T½
Procedure: (§1) Plasma stability assays were performed in human and dog. Duplicate sets were performed with a tecan liquid handler or with cluster tubes in a heat block. Generally, a substrate concentration of 2 μM was used. Plasma in sodium EDTA was provided by BioIVT as whole plasma with K2 EDA as anti-coagulent.

[4] = Dog plasma stability; format: in vitro ADME; settings: substrate 2 μM, read-out: Dog Plasma T½
Procedure: as §1

[5] = Dog GI S9 stability
Procedure: (§2) GI S9 stability assays were performed. Generally, a substrate concentration of 2 μM was used, a protein concentration of 1.0 mg/mL intestinal S9 was used, and a reaction buffer of 1× phosphate buffered saline (PBS) was used. Intestinal S9 was provided by BioIVT (dog) or Xenotech (human). […] Plates were vortexed, and then centrifuged at 3000×G for 30 minutes. 150 μL of supernatant was transferred to new plates and 150 μL water was added. New plates were vortexed to mix.
(§3) Samples were analyzed with a Leap HTC Autosampler and a Dionex UltiMate 3000 HPLC system interfaced to a Thermo Q-Exactive mass spectrometer operation in positive ion electrospray mode. A Thermo Scientific Hypersil GOLD (1.9 μM particle size, 50×2.1 mm) HPLC column was used and mobile phase was pumped at 0.5 mL/min. Elution of analytes was achieved by a series of linear gradients of acetonitrile in water containing 0.1% (v/v) formic acid. Quantification was by analyte/internal standard peak area ratio (PAR).

[6] = Human GI S9 stability
Procedure: as §2, §3

[7] = oral powder in capsule, dosed Compound B 9.7 mg-eq/kg
[8] = fasted-state simulated intestinal fluid (FaSSIF), fassif, fasted-state simulated intestinal fluid pH 6.5, ambient temperature, read-out: FaSSIF (pH 6.5) solubility
[9] = fed-state simulated intestinal fluid (FeSSIF), fessif, fed-state simulated intestinal fluid pH 5.0, ambient temperature, read-out: FeSSIF (pH 5.0) solubility

Compound | solubility at 2.5 h [2, 8] [µg/mL] | solubility at 2.5 h [2, 9] [µg/mL] | half-life at 2 μM [3] [min] | half-life at 2 μM ([5]; intestinal S9) [min] | half-life at 2 μM ([6]; intestinal S9) [min] | also measured
Cn1ccc2c([C@@H](c3cn(C45CC(C4)C5)nn3)N(C(=O)OCOP(=O)(O)O)c3cc(Cl)c4ncc(C#N)c(NCC(C)(C)C)c4c3)cccc2c1=O [Compound B] |  |  |  |  |  | AUC0-72 h of the named analyte in plasma [1, 7]: BLQ
Cn1ccc2c([C@@H](c3cn(C45CC(C4)C5)nn3)N(C(=O)OCCCOP(=O)(O)O)c3cc(Cl)c4ncc(C#N)c(NCC(C)(C)C)c4c3)cccc2c1=O [Compound C] |  |  |  |  |  | AUC0-72 h of the named analyte in plasma ([1]; oral 3 mg/mL solution, dosed Compound C 3 mg-eq/kg): BLQ; in vivo conversion of dosed compound ([1]; oral solution of Compound C, plasma over 72 hour): converted in vivo to both Compound D and Compound A in measurable amounts
Cn1ccc2c([C@@H](c3cn(C45CC(C4)C5)nn3)N(C(=O)OCOP(=O)(O)O)c3cc(Cl)c4ncc(C#N)c(NCC(C)(C)C)c4c3)cccc2c1=O [Example 1, (Phosphonooxy)methyl (S)-((1-(bicyclo[1.1.1]pentan-1-yl)-1H-1,2,3-triazol-4-yl)(2-methyl-1-oxo-1,2-dihydroisoquinolin-5-yl)methyl)(8-chloro-3-cyano-4-(neopentylamino)quinolin-6-yl)carbamate] | > 1580 | > 2170 | 369 | 26 | 43 | half-life at 2 μM [4]: 278 min
C[C@H](N)C(=O)OCOC(=O)N(c1cc(Cl)c2ncc(C#N)c(NCC(C)(C)C)c2c1)[C@H](c1cn(C23CC(C2)C3)nn1)c1cccc2c(=O)n(C)ccc12 [Example 2, ((((S)-(1-(bicyclo[1.1.1]pentan-1-yl)-1H-1,2,3-triazol-4-yl)(2-methyl-1-oxo-1,2-dihydroisoquinolin-5-yl)methyl)(8-chloro-3-cyano-4-(neopentylamino)quinolin-6-yl)carbamoyl)oxy)methyl L-alaninate] | > 1880 | > 1910 | 14 | 1 | < 1 | half-life at 2 μM [4]: 3 min
Cn1ccc2c([C@@H](c3cn(C45CC(C4)C5)nn3)N(C(=O)OCCCOP(=O)(O)O)c3cc(Cl)c4ncc(C#N)c(NCC(C)(C)C)c4c3)cccc2c1=O [Example 4, 3-(Phosphonooxy)propyl (S)-((1-(bicyclo[1.1.1]pentan-1-yl)-1H-1,2,3-triazol-4-yl)(2-methyl-1-oxo-1,2-dihydroisoquinolin-5-yl)methyl)(8-chloro-3-cyano-4-(neopentylamino)quinolin-6-yl)carbamate] | 4 (≈ 5.16 µM) | 210 (≈ 271 µM) |  |  |  | half-life at 2 μM ([5]; s9): 12 min; half-life at 2 μM ([6]; s9): 21 min
Cc1nc(F)ccc1[C@@H](c1cn(C23CC(C2)C3)nn1)N(C(=O)OCOP(=O)(O)O)c1cc(C#N)c2ncc(C#N)c(NCC(C)(C)C)c2c1 [Example 6, (Phosphonooxy)methyl (S)-((1-(bicyclo[1.1.1]pentan-1-yl)-1H-1,2,3-triazol-4-yl)(6-fluoro-2-methylpyridin-3-yl)methyl)(3,8-dicyano-4-(neopentylamino)quinolin-6-yl)carbamate] |  |  |  |  |  | half-life at 2 μM ([5]; s9): 14 min; half-life at 2 μM ([6]; s9): 25 min
CC(=O)OCOC(=O)N(c1cc(C#N)c2ncc(C#N)c(NCC(C)(C)C)c2c1)[C@H](c1cn(C23CC(C2)C3)nn1)c1ccc(F)nc1C [Example 7, (S)-((((1-(bicyclo[1.1.1]pentan-1-yl)-1H-1,2,3-triazol-4-yl)(6-fluoro-2-methylpyridin-3-yl)methyl)(3,8-dicyano-4-(neopentylamino)quinolin-6-yl)carbamoyl)oxy)methyl acetate] | 12 | 42 |  |  | 3 | 
Cc1nc(F)ccc1[C@@H](c1cn(C23CC(C2)C3)nn1)N(C(=O)OCOC(=O)C1CCN(C)CC1)c1cc(C#N)c2ncc(C#N)c(NCC(C)(C)C)c2c1 [Example 8, (S)-((((1-(bicyclo[1.1.1]pentan-1-yl)-1H-1,2,3-triazol-4-yl)(6-fluoro-2-methylpyridin-3-yl)methyl)(3,8-dicyano-4-(neopentylamino)quinolin-6-yl)carbamoyl)oxy)methyl 1-methylpiperidine-4-carboxylate] | 77 (≈ 105 µM) | 450 (≈ 612 µM) | 237 |  | 165 | 
COC[C@@H](C)OC(=O)N(c1cc(C#N)c2ncc(C#N)c(NCC(C)(C)C)c2c1)[C@H](c1cn(C23CC(C2)C3)nn1)c1ccc(F)nc1C [Example 9, (R)-1-methoxypropan-2-yl ((S)-(1-(bicyclo[1.1.1]pentan-1-yl)-1H-1,2,3-triazol-4-yl)(6-fluoro-2-methylpyridin-3-yl)methyl)(3,8-dicyano-4-(neopentylamino)quinolin-6-yl)carbamate] | 12 (≈ 18.4 µM) | 52 (≈ 79.8 µM) | 1580 |  | 789 | 
Cc1nc(F)ccc1[C@@H](c1cn(C23CC(C2)C3)nn1)N(C(=O)OCOP(=O)(O)O)c1cc(C#N)c2ncc(C#N)c(N[C@H](C)C(C)(C)C)c2c1 [Example 10, (Phosphonooxy)methyl ((S)-(1-(bicyclo[1.1.1]pentan-1-yl)-1H-1,2,3-triazol-4-yl)(6-fluoro-2-methylpyridin-3-yl)methyl)(3,8-dicyano-4-(((R)-3,3-dimethylbutan-2-yl)amino)quinolin-6-yl)carbamate] |  |  |  |  |  | half-life at 2 μM ([5]; s9): 20 min; half-life at 2 μM ([6]; s9): 26 min
COC[C@@H](C)OC(=O)N(c1cc(C#N)c2ncc(C#N)c(N[C@H](C)C(C)(C)C)c2c1)[C@H](c1cn(C23CC(C2)C3)nn1)c1ccc(F)nc1C [Example 12, (R)-1-methoxypropan-2-yl ((S)-(1-(bicyclo[1.1.1]pentan-1-yl)-1H-1,2,3-triazol-4-yl)(6-fluoro-2-methylpyridin-3-yl)methyl)(3,8-dicyano-4-(((R)-3,3-dimethylbutan-2-yl)amino)quinolin-6-yl)carbamate] |  |  |  | 528 | 477 | 
Cc1nc(F)ccc1[C@@H](c1cn(C23CC(C2)C3)nn1)N(C(=O)C(=O)O)c1cc(C#N)c2ncc(C#N)c(N[C@H](C)C(C)(C)C)c2c1 [Example 13, 2-(((S)-(1-(bicyclo[1.1.1]pentan-1-yl)-1H-1,2,3-triazol-4-yl)(6-fluoro-2-methylpyridin-3-yl)methyl)(3,8-dicyano-4-(((R)-3,3-dimethylbutan-2-yl)amino)quinolin-6-yl)amino)-2-oxoacetic acid] |  |  |  | 789 | 789 | 
Cn1ccc2c([C@@H](c3cn(C45CC(C4)C5)nn3)N(C(=O)OCO)c3cc(Cl)c4ncc(C#N)c(NCC(C)(C)C)c4c3)cccc2c1=O [Intermediate A] |  |  |  |  |  | AUC0-72 h of the named analyte in plasma [1, 7]: BLQ
